Results as given in US11583538B2, “Substituted pyrrolo[1,2-a]pyrazines and pyrrolo[1,2-a][1,4]diazepines as TREX1 inhibitors” (Venenum Biodesign, LLC, priority 2019, dated 2023).

Legend:
[1] = test system: THP1 Dual cells, ISRE Lucia reporter gene, transfected with G3-YSD DNA; assay: Human Cellular EC50 Reporter Assay; assay type: cell-based; conditions: 72 h, serum-starved cells transfected with G3-YSD 10 ng/ml, three days
Description: Example E is a cell-based assay for TREX1 inhibitors using THP1 Dual™ cells (Invivogen), a human monocyte cell line that has stable integration of an Interferon Stimulated Response Element (ISRE) Lucia reporter gene. The Lucia gene encodes a secreted luciferase reporter protein, under the control of an ISG54 minimal promoter in conjunction with five IFN-stimulated response elements. Activation of the cGAS-STING pathway in THP1 Dual™ cells leads to enhanced luciferase secretion and increased luminescence.
A cell-based assay was established using THP1 Dual™ cells (InvivoGen), a human monocyte cell line that has stable integration of an Interferon Stimulated Response Element (ISRE) Lucia reporter gene. The Lucia gene encodes a secreted luciferase reporter protein, under the control of an ISG54 minimal promoter in conjunction with five IFN-stimulated response elements. Activation of the cGAS-STING pathway in these cells leads to enhanced luciferase secretion. Three days prior to the assay, cells were transferred to a T75 flask at a density of 3.0×10^5 cells/ml in 20 ml of serum-starved media (RPMI 1640 containing 1% Heat-Inactivated FBS, 1× Glutagro, 10 mM HEPES, 1 mM sodium pyruvate, 1×Pen/Strep, 100 μg/ml Normocin, 100 μg/ml Zeocin, 10 μg/ml Blasticidin). On the day of assay cells were collected by centrifugation, washed in 1×DPBS, and resuspended in the 1% serum media at 3.3×10^5 cells/ml. An aliquot of an aqueous solution of the DNA oligonucleotide G3-YSD (InvivoGen) at 1 mg/ml was diluted 100-fold into the transfection reagent LyoVec (InvivoGen) and incubated at ambient temperature for 50 min to allow complex formation. Test compounds in DMSO were transferred to a standard 96-well tissue culture plate via acoustic dispense of 0.54 μl per well. Serum-starved cells were batch transfected with complex at a final DNA concentration of 10 ng/ml for 60 min at ambient temperature before dispensing 180 ul (60,000 cells) per well into the assay plate. The assay plate was then incubated in a humidified chamber at 37° C. in 5% CO2 for three days. An aliquot of 10 μl was removed from each well to combine with 10 μl of the luciferase detection reagent, QUANTI-Luc™ Gold (InvivoGen) in a white 384-well plate. The luminescent signal was then read using an EnVision plate reader (Perkin Elmer). An EC50 for each compound was determined by plotting the signal as a function of log molar concentration and fitting to a four parameter logistic equation. (see Table 32).

human TREX1 = human TREX1 (Homo sapiens (Human), UniProt Q9NSU2); assay: TREX1 Exonuclease Assay; assay type: biochemical
Experimental: For human TREX1, the nucleotide sequence of the gene construct was codon optimized for expression in the bacterial host. The sequence was incorporated into the pMAL-c5e vector (NEB) downstream of a solubility-promoting MBP (maltose binding protein) fusion partner. The fusion protein product was expressed in E. coli strain BL21 (DE3) (Millipore) and purified in a series of chromatographic steps. Initial steps were conducted using a dextrin sepharose affinity column followed by a Q-sepharose ion exchange column (both GE Healthcare). After the second column the MBP partner was removed by incubation with enterokinase (NEB). Further purification was carried out with the second application of a Q-sepharose column followed by a Superdex 75 (GE Healthcare) size exclusion column. Finally, a heparin sepharose column (GE Healthcare) was applied to remove contaminating nucleotides.
To evaluate the effect of compounds on TREX1 activity, test compounds were serially diluted (11-point, 3-fold) from 10 mM stock solutions and delivered to 384-well low-volume assay plates in 80 nL DMSO using an acoustic dispenser. Next, 4 μL of human TREX1 (0.5 nM), or murine TREX1 (1 nM), diluted in assay buffer (20 mM Tris pH 7.5, 5 mM MgCl2, 100 μg/mL BSA, 0.002% Triton X-100, 2 mM DTT), was added to the assay plate. After incubating for 30 minutes, 4 μL of labeled DNA oligonucleotide (500 nM) in assay buffer was added to initiate TREX1 exonuclease activity. The reaction was allowed to proceed for 45 minutes at room temperature prior to the addition of 4 μL of 150 mM EDTA to halt TREX1 activity.

Chain of human TREX1 (Q9NSU2 whole entry, the tested form may be a part): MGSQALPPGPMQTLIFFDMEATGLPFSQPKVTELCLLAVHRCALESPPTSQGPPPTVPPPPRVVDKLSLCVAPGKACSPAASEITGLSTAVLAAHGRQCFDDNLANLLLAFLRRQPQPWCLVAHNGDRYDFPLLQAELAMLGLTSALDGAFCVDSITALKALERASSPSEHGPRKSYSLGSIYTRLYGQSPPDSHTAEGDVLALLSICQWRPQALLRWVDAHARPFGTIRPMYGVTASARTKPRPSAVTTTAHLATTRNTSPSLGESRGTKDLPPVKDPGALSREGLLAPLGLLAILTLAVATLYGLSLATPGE

| SMILES | EC50 [1] | IC50 (human TREX1) |
| --- | --- | --- |
| COc1c(CNC(=O)[C@@H](CCC(=O)O)N2CCC(CCc3ccccc3)N3C[C@H](N)C[C@H]3C2=O)ccc(Cl)c1Cl (stereo partly shown) [Example 22] | < 1 µM | < 1 µM |
| N[C@@H]1C[C@H]2C(=O)N([C@H](CCC(=O)O)C(=O)NCc3ccc(Cl)c(Cl)c3F)CCC(CCc3ccccc3)N2C1 (stereo partly shown) [Example 30] | 1 to 10 µM | < 1 µM |
| CCN(CC)C(=O)COC(=O)CC[C@H](C(=O)NCc1ccc(Cl)c(Cl)c1)N1CCC(CCc2ccccc2)N2C[C@H](N)C[C@H]2C1=O (stereo partly drawn) [Example 88, (4R)-2-(diethylamino)-2-oxoethyl 4-((8R,9aS)-8-amino-1-oxo-5-phenethylhexahydro-1H-pyrrolo[1,2-a][1,4]diazepin-2(3H)-yl)-5-((3,4-dichlorobenzyl)amino)-5-oxopentanoate] | – | < 1 µM |
| CCOC(=O)CC[C@H](C(=O)NCc1ccc(Cl)c(Cl)c1)N1CCC(CCc2ccccc2)N2C[C@H](N)C[C@H]2C1=O (stereo partly drawn) [Example 89, (4R)-ethyl 4-((8R,9aS)-8-amino-1-oxo-5-phenethylhexahydro-1H-pyrrolo[1,2-a][1,4]diazepin-2(3H)-yl)-5-((3,4-dichlorobenzyl)amino)-5-oxopentanoate] | – | < 1 µM |
| CC(C)OC(=O)CC[C@H](C(=O)NCc1ccc(Cl)c(Cl)c1)N1CCC(CCc2ccccc2)N2C[C@H](N)C[C@H]2C1=O (stereo partly shown) [Example 92] | – | < 1 µM |
| CCOC(=O)CC[C@H](C(=O)NCc1cc(Cl)c(Cl)cc1F)N1CCC(CCc2ccccc2)N2C[C@H](N)C[C@H]2C1=O (stereo partly shown) [Example 94] | – | < 1 µM |
| CCOC(=O)CC[C@H](C(=O)N1CCOC[C@H]1c1ccc(Cl)c(Cl)c1)N1CCC(CCc2ccccc2)N2C[C@H](N)C[C@H]2C1=O (stereo partly shown) [Example 96] | – | < 1 µM |
| CCOC(=O)CC[C@H](C(=O)N1CCCC[C@H]1c1ccc(Cl)c(Cl)c1)N1CCC(CCc2ccccc2)N2C[C@H](N)C[C@H]2C1=O (stereo partly shown) [Example 97] | – | < 1 µM |
| CCOC(=O)CC[C@H](C(=O)N1CCC[C@H]1c1ccc(Cl)c(Cl)c1)N1CCC(CCc2ccccc2)N2C[C@H](N)C[C@H]2C1=O (stereo partly shown) [Example 98] | – | < 1 µM |
| CCOC(=O)CC[C@H](C(=O)NCc1cc(Cl)c(Cl)cn1)N1CCC(CCc2ccccc2)N2C[C@H](N)C[C@H]2C1=O (stereo partly shown) [Example 99] | – | < 1 µM |
| COC(=O)CC[C@H](C(=O)NCc1ccc(Cl)cn1)N1CCC(CCc2ccccc2)N2C[C@H](N)C[C@H]2C1=O (stereo partly shown) [Example 100] | – | < 1 µM |
| COC(=O)CC[C@H](C(=O)NS(=O)(=O)c1ccc(Cl)c(Cl)c1)N1CCC(CCc2ccccc2)N2C[C@H](N)C[C@H]2C1=O (stereo partly shown) [Example 101] | – | < 1 µM |
| CCOC(=O)CC[C@H](C(=O)NCc1ccc(Cl)c(Cl)c1OC)N1CCC(CCc2ccccc2)N2C[C@H](N)C[C@H]2C1=O (stereo partly shown) [Example 102] | – | < 1 µM |
| CCOC(=O)CC[C@H](C(=O)NCc1cc(Cl)c(Cl)cc1OC)N1CCC(CCc2ccccc2)N2C[C@H](N)C[C@H]2C1=O (stereo partly shown) [Example 103] | – | < 1 µM |
| COC(=O)CC[C@H](C(=O)NCc1ccc(Cl)c(Cl)c1)N1CCC(CCc2ccccc2)N2C[C@H](N)C[C@H]2C1=O (stereo partly drawn) [Example 104, (4R)-methyl 4-((8R,9aS)-8-amino-1-oxo-5-phenethylhexahydro-1H-pyrrolo[1,2-a][1,4]diazepin-2(3H)-yl)-5-((3,4-dichlorobenzyl)amino)-5-oxopentanoate] | – | < 1 µM |
| COc1c(CNC(=O)[C@@H](CCC(N)=O)N2CCC(CCc3ccccc3)N3C[C@H](N)C[C@H]3C2=O)ccc(Cl)c1Cl (stereo partly shown) [Example 106] | – | < 1 µM |
| NC(=O)CC[C@H](C(=O)NCc1ccc(Cl)c(Cl)c1F)N1CCC(CCc2ccccc2)N2C[C@H](N)C[C@H]2C1=O (stereo partly shown) [Example 107] | – | < 1 µM |
| COc1c(CNC(=O)[C@@H](CCC#N)N2CCC(CCc3ccccc3)N3C[C@H](N)C[C@H]3C2=O)ccc(Cl)c1Cl (stereo partly shown) [Example 108] | – | < 1 µM |
| N#CCC[C@H](C(=O)NCc1ccc(Cl)c(Cl)c1F)N1CCC(CCc2ccccc2)N2C[C@H](N)C[C@H]2C1=O (stereo partly shown) [Example 109] | – | < 1 µM |
| N#CCC[C@H](C(=O)NCc1ccc(Cl)c(Cl)c1)N1CCC(COc2ccc(F)cc2)N2C[C@H](N)C[C@H]2C1=O (stereo partly shown) [Example 110] | – | < 1 µM |

| SMILES | EC50 [1] | IC50 (human TREX1) |
| --- | --- | --- |
| N#CCC[C@H](C(=O)NCc1ccc(Cl)c(Cl)c1)N1CCC(COc2cccc(F)c2)N2C[C@H](N)C[C@H]2C1=O (stereo partly shown) [Example 111] | – | < 1 µM |
| N#CC[C@H](C(=O)NCc1ccc(Cl)c(Cl)c1)N1CCC(CCc2ccccc2)N2C[C@H](N)C[C@H]2C1=O (stereo partly shown) [Example 112] | – | < 1 µM |
| N#CC[C@H](C(=O)NCc1ccc(Cl)c(Cl)n1)N1CCC(CCc2ccccc2)N2C[C@H](N)C[C@H]2C1=O (stereo partly shown) [Example 113] | – | < 1 µM |
| N[C@@H]1C[C@H]2C(=O)N([C@H](CCC(=O)NO)C(=O)NCc3ccc(Cl)c(Cl)c3)CCC(COc3ccc(F)cc3)N2C1 (stereo partly shown) [Example 115] | – | < 1 µM |
| N[C@@H]1C[C@H]2C(=O)N([C@H](CCC(=O)NO)C(=O)NCc3ccc(Cl)c(Cl)c3)CCC(CCc3ccccc3)N2C1 (stereo partly shown) [Example 116] | – | < 1 µM |
| CONC(=O)CC[C@H](C(=O)NCc1ccc(Cl)c(Cl)c1)N1CCC(CCc2ccccc2)N2C[C@H](N)C[C@H]2C1=O (stereo partly shown) [Example 117] | – | < 1 µM |
| COc1c(CNC(=O)[C@@H](CCc2nnn[nH]2)N2CCC(CCc3ccccc3)N3C[C@H](N)C[C@H]3C2=O)ccc(Cl)c1Cl (stereo partly shown) [Example 119] | < 1 µM | < 1 µM |
| N[C@@H]1C[C@H]2C(=O)N([C@H](CCc3nnn[nH]3)C(=O)NCc3ccc(Cl)c(Cl)c3F)CCC(CCc3ccccc3)N2C1 (stereo partly shown) [Example 120] | 1 to 10 µM | < 1 µM |
| CC(=O)NCC[C@H](C(=O)NCc1ccc(Cl)c(Cl)c1)N1CCC(CCc2ccccc2)N2C[C@H](N)C[C@H]2C1=O (stereo partly shown) [Example 131] | – | < 1 µM |
| CS(=O)(=O)NCC[C@H](C(=O)NCc1ccc(Cl)c(Cl)c1)N1CCC(CCc2ccccc2)N2C[C@H](N)C[C@H]2C1=O (stereo partly shown) [Example 132] | – | < 1 µM |
| N[C@@H]1C[C@H]2C(=O)N([C@H](CCNS(=O)(=O)C3CC3)C(=O)NCc3ccc(Cl)c(Cl)c3)CCC(CCc3ccccc3)N2C1 (stereo partly shown) [Example 133] | – | < 1 µM |
| CNC(=O)CC[C@H](C(=O)NCc1ccc(Cl)c(Cl)c1)N1CCC(CCc2ccccc2)N2C[C@H](N)C[C@H]2C1=O (stereo partly shown) [Example 136] | – | < 1 µM |
| Cc1nnc(CC[C@H](C(=O)NCc2ccc(Cl)c(Cl)c2F)N2CCC(CCc3ccccc3)N3C[C@H](N)C[C@H]3C2=O)[nH]1 (stereo partly shown) [Example 140] | – | < 1 µM |
| CC(C)Oc1c(CNC(=O)[C@@H](CCC#N)N2CCC(CCc3ccccc3)N3C[C@H](N)C[C@H]3C2=O)ccc(Cl)c1Cl (stereo partly shown) [Example 141] | – | < 1 µM |
| N[C@@H]1C[C@H]2C(=O)N([C@H](CCNS(=O)(=O)C(F)(F)F)C(=O)NCc3ccc(Cl)c(Cl)c3)CCC(CCc3ccccc3)N2C1 (stereo partly shown) [Example 142] | – | < 1 µM |
| CCOC(=O)N[C@@H]1C[C@H]2C(=O)N([C@H](CCC(=O)O)C(=O)NCc3ccc(Cl)c(Cl)c3)CCC(CCc3ccccc3)N2C1 (stereo partly shown) [Example 143] | – | 10 to 100 µM |
| CC(C)Oc1c(CNC(=O)[C@@H](CCc2nnn[nH]2)N2CCC(CCc3ccccc3)N3C[C@H](N)C[C@H]3C2=O)ccc(Cl)c1Cl (stereo partly shown) [Example 144] | – | < 1 µM |
| CCOC(=O)CC[C@H](C(=O)NCc1ccc(Cl)c(Cl)c1)N1CCC(CCc2ccccc2)N2C[C@H](NC(=O)OCC)C[C@H]2C1=O (stereo partly shown) [Example 145] | – | 10 to 100 µM |
| N[C@@H]1C[C@H]2C(=O)N([C@H](CCC(=O)O)C(=O)NCc3ccc(Cl)c(C(F)(F)F)c3)CCC(CCc3ccccc3)N2C1 (stereo partly shown) [Example 146] | – | < 1 µM |
